Target: T1, Sortase family protein (Staphylococcus aureus, UniProt Q9S446)
T1 sequence (Q9S446 whole entry): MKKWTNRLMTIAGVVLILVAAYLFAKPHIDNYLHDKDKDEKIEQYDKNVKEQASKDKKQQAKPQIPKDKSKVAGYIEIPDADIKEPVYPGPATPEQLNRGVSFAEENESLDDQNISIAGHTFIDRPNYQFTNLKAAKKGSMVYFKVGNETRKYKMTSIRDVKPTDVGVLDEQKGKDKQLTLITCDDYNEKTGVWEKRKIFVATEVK
Assay: Inhibition of Staphylococcus aureus ATCC 6538p SortA expressed in Escherichia coli using Dabcyl-QALPETGEE-Edans as substrate after 1 hr by fluorescence spectrophotometric method

With O=C(O)c1cc[c]([Hg][OH])cc1 the IC50 was 25 µM.

Source: BindingDB's records for doi:10.1021/acs.jnatprod.7b00121 (Seoul National University, 2017)
